In BindingDB's records for PubMed 36240545 (n/a, 2022):
pIC50: −log10 of the molar value.

Biological target: T1, X-box-binding protein 1 (Homo sapiens, UniProt P17861)
T1 sequence (P17861 whole entry): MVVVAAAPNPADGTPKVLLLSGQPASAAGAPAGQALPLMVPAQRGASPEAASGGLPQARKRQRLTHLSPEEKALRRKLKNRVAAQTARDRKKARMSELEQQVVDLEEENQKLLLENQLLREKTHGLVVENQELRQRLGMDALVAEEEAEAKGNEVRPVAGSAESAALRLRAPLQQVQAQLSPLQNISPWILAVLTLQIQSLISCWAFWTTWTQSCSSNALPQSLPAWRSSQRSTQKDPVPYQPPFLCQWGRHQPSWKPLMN
Test: Inhibition of thapsigargin-induced XBP1-luciferase activation in human HeLa cells incubated for 24 hrs by luciferase assay

pIC50: 4.17
Structure (SMILES): CO[C@H]1/C=C/C=C/C=C/C[C@H](OC(=O)[C@@H](C)NC(=O)C2CCCCC2)[C@H](C)[C@@H](O)/C(C)=C\CCC2=C(SC)C(=O)C=C(NC(=O)C1)C2=O
